Data reported in PMC3366684, “Studies on the Synthesis of Derivatives of Marine-Derived Bostrycin and Their Structure-Activity Relationship against Tumor Cells” (Marine Drugs, 2012).
Values belong to the compound of their own block, whether it stands above or below them.

Assays:
[1] = system: HepG2 cells; assay: MTT cytotoxicity assay, HepG2; assay type: cell-based, human; details: for IC50: human liver cancer cell line, MTT, 48 h exposure, mean ± SD, three independent experiments
Protocol: (§1) All compounds were evaluated for their in vitro cytotoxic activity against five human cancer cell lines including human breast MCF-7, human breast MDA-MB-435, human lung A549, human liver HepG2 and human colon HCT-116, and compared with their effects on the immortalized human breast epithelial cell line MCF-10A by MTT assay using epirubicin (an anticancer drug used widely in the clinic) as positive control.
(§2) MCF-7, MDA-MB-435, A549, HepG2 and HCT-116 cells were cultured in Dulbecco’s modification Eagle’s medium (DMEM, Invitrogen, Carlsbad, CA, USA) supplemented with 10% fetal bovine serum (FBS, Hyclone, Logan, UT, USA), 2 mM L-glutamine, 100 μg/mL streptomycin and 100 U/mL penicillin (Invitrogen). MCF-10A cells were cultured in keratinocyte serum free medium (KSFM) supplemented with 0.1–0.2 ng/mL human recombinant epidermal growth factor and 20–30 μg/mL bovine pituitary extract (Invitrogen). The cells were incubated at 37 °C in a humidified atmosphere with 5% CO2.
(§3) Cells were harvested during logarithmic growth phase and seeded in 96-well plates at a density of 1 × 10^4 cells/mL, and cultured at 37 °C in a humidified incubator (5% CO2) for 24 h, followed by exposure to various concentrations of compounds tested for 48 h. Subsequently 20 μL of MTT (Genview, Houston, TX, USA) solution (5 mg/mL) was added to each well and mixed, the cells were then incubated for an additional 4 h. Culture supernatant was moved, 150 μL of DMSO (Sangon Biotech, Shanghai, China) was added to each well to fully dissolve the MTT-formazan crystals. Cell growth inhibition was determined by measuring the absorbance (Abs) at λ = 570 nm using a microplate reader and calculated according to the following equation:
(§4) Growth inhibition = (1 − OD of treated cells/OD of control cells) × 100%
(§5) The half maximal inhibitory concentrations (IC50) were obtained from liner regression analysis of the concentration-response curves plotted for each tested compound.

[2] = system: A549 cells; assay: MTT cytotoxicity assay, A549; assay type: cell-based, human; details: for IC50: A549, human lung cancer cell line, MTT, 48 h exposure, mean ± SD, three independent experiments
Protocol: as §1, §2, §3, §4, §5

[3] = system: MCF-7 cells; assay: MTT cytotoxicity assay, MCF-7; assay type: cell-based, human; details: for IC50: MCF7, human breast cancer cell line, MTT, 48 h exposure, mean ± SD, three independent experiments
Protocol: as §1, §2, §3, §4, §5

[4] = system: five human cancer cell lines (MCF-7, MDA-MB-435, A549, HepG2, HCT-116); assay: MTT cytotoxicity assay, panel of five human cancer cell lines (summary statements); assay type: cell-based; details: MCF-7, MDA-MB-435, A549, HepG2 and HCT-116, read-out: IC50 against the tested human cancer cell lines (summary over the panel)
Protocol: as §1, §2
Cells were harvested during logarithmic growth phase and seeded in 96-well plates at a density of 1 × 10^4 cells/mL, and cultured at 37 °C in a humidified incubator (5% CO2) for 24 h, followed by exposure to various concentrations of compounds tested for 48 h. […] Cell growth inhibition was determined by measuring the absorbance (Abs) at λ = 570 nm using a microplate reader and calculated according to the following equation: […]

[5] = system: MDA-MB-435 cells; assay: MTT cytotoxicity assay, MDA-MB-435; assay type: cell-based, human; details: for IC50: MDA-MB-435, human breast cancer cell line, MTT, 48 h exposure, mean ± SD, three independent experiments
Protocol: as §1, §2, §3, §4, §5

[6] = MTT cytotoxicity assay, MCF-10A; assay type: cell-based; details: MCF-10A cells, immortalized human breast epithelial cell line, 48 h exposure, mean ± SD, three independent experiments
Protocol: as §1, §2, §3, §4, §5

[7] = system: HCT-116 cells; assay: MTT cytotoxicity assay, HCT-116; assay type: cell-based, human; details: for IC50: HCT-116, human colon cancer cell line, MTT, 48 h exposure, mean ± SD, three independent experiments
Protocol: as §1, §2, §3, §4, §5

[8] = ratio of IC50 values, bostrycin vs compound

SMILES: COc1cc(O)c2c(c1O)C(=O)c1cc(C)ccc1C2=O [Compound 4, Austrocortinin]
IC50 ([1]; Homo sapiens, HepG2, 48 h): > 50 µM
IC50 [2]: > 50 µM
IC50 [3]: > 50 µM
melting point: 232 to 233 °C
IC50 [4]: > 50 µM
IC50 [5]: 41.6 ± 2.63 µM
IC50 at 48 h [6]: > 50 µM
IC50 [7]: > 50 µM

SMILES: COc1ccc(CNC2=CC(=O)c3c(O)c4c(c(O)c3C2=O)C[C@](C)(O)[C@H](O)[C@H]4O)cc1 [Compound 18, 6-(p-Methoxybenzylamino)-6-demethoxybostrycin]
IC50 ([1]; Homo sapiens, HepG2, 48 h): > 50 µM
IC50 [2]: 15.2 ± 0.42 µM
IC50 [3]: 9.17 ± 0.28 µM
melting point: 149 to 150 °C
IC50 [5]: 25.6 ± 1.71 µM
IC50 at 48 h [6]: 27.7 ± 0.93 µM
IC50 [7]: 13.6 ± 1.85 µM

SMILES: C[C@]1(O)Cc2c(O)c3c(c(O)c2[C@H](O)[C@H]1O)C(=O)C=C(NCc1ccc(F)cc1)C3=O [Compound 19, 6-(p-Fluorobenzylamino)-6-demethoxybostrycin]
IC50 ([1]; Homo sapiens, HepG2, 48 h): > 50 µM
IC50 [2]: 6.25 ± 0.43 µM
IC50 [3]: 7.94 ± 0.26 µM
melting point: 147 to 148 °C
IC50 [5]: 7.86 ± 1.2 µM
IC50 at 48 h [6]: 7.5 ± 0.69 µM
IC50 [7]: 4.92 ± 0.38 µM

SMILES: CCSC1=C(SCC)C(=O)c2c(O)c3c(c(O)c2C1=O)C[C@](C)(O)[C@H](O)[C@H]3O [Compound 23, 6,7-bis(Ethylthio)-6-demethoxybostrycin]
IC50 ([1]; Homo sapiens, HepG2, 48 h): 6.9 ± 0.26 µM
IC50 [2]: 4.07 ± 0.51 µM
IC50 [3]: 0.71 ± 0.01 µM
melting point: 180 to 181 °C
IC50 [5]: 0.76 ± 0.06 µM
IC50 at 48 h [6]: 14.8 ± 0.96 µM
IC50 [7]: 0.95 ± 0.06 µM

SMILES: CCCCSC1=C(SCCCC)C(=O)c2c(O)c3c(c(O)c2C1=O)C[C@](C)(O)[C@H](O)[C@H]3O [Compound 24, 6,7-bis(n-Butylthio)-6-demethoxybostrycin]
IC50 ([1]; Homo sapiens, HepG2, 48 h): 4.03 ± 0.13 µM
IC50 [2]: 4.06 ± 0.42 µM
IC50 [3]: 2.45 ± 0.48 µM
melting point: 124 to 125 °C
IC50 [5]: 7.05 ± 0.56 µM
IC50 at 48 h [6]: 30.6 ± 2.54 µM
IC50 [7]: 3.25 ± 0.54 µM

Second part, led by results:

melting point: 112 to 113 °C
SMILES: CCCCCCSC1=C(SCCCCCC)C(=O)c2c(O)c3c(c(O)c2C1=O)C[C@](C)(O)[C@H](O)[C@H]3O [Compound 25, 6,7-bis(n-Hexylthio)-6-demethoxybostrycin]
IC50 ([1]; Homo sapiens, HepG2, 48 h): 3.33 ± 0.66 µM
IC50 [2]: 0.71 ± 0.01 µM
IC50 [3]: 2.6 ± 0.45 µM
IC50 [5]: 10.6 ± 1.11 µM
IC50 at 48 h [6]: 35 ± 1.94 µM
IC50 [7]: 0.74 ± 0.1 µM

melting point: > 300 °C
SMILES: C[C@]1(O)Cc2c(O)c3c(c(O)c2[C@H](O)[C@H]1O)C(=O)C1=C(SCCS1)C3=O [Compound 28, 6,7-(Ethan-1′,2′-yl-dithio)-6-demethoxybostrycin]
IC50 [1]: 0.82 ± 0.01 µM
fold more active than bostrycin, HepG2 [1, 8]: 9.4 fold
IC50 [2]: 0.37 ± 0.04 µM
fold more active than bostrycin, A549 [2, 8]: 7.1 fold
IC50 [3]: 0.57 ± 0.04 µM
fold more active than bostrycin, MCF-7 [3, 8]: 3.8 fold
IC50 [5]: 0.63 ± 0.45 µM
fold more active than bostrycin, MDA-MB-435 [5, 8]: 4.5 fold
IC50 at 48 h [6]: 0.81 ± 0.11 µM
IC50 [7]: 0.68 ± 0.08 µM
fold more active than bostrycin, HCT-116 [7, 8]: 7.0 fold
